Test results taken from article PMC12392461, “Beyond Estrogenicity: A Comparative Assessment of Bisphenol A and Its Alternatives in In Vitro Assays Questions Safety of Replacements” (Environmental Science & Technology, 2025).
Where two headings read alike, the source gives them in different places.

Key:
[1] = system: HEK293H (PPARγ); details: for IC10, HEK293, PPARγ: cytotoxicity, HEK293 (PPARγ assay cells)
Summary of the method: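 Cells were seeded and incubated 24 h, then dosed with 11-step serial dilutions of each chemical in duplicate (methanol below 1%). Confluency was imaged before and after a further 24 h at 37 °C. IC10 from this viability served as the cut-off for deriving effect concentrations.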

[2] = Octanol-water partition constant (log Kow) measurement, Sirius T3 potentiometric log P; format: physicochemical; details: experimental, this study
Description: Physicochemical properties provide input parameters for the baseline toxicity model. Acidity constants (pK a) and octanol–water partition constants of the neutral species (K ow) were measured with a Sirius T instrument from Pion Inc. (Sussex, UK) (Text S1.2 and Table S1). A detailed description of the pK a and K ow measurements can be found in literature. , […]
S1.2: pKa and log Kow measurements […]
titrator (Pion Inc., Sussex, U.K.). […]
UV absorbance. For log Kow measurement, approximately 1 mg of test chemical was added to a sample vial and the measurement was done automatically via the potentiometric log P protocol. Briefly, each compound is titrated thrice in an immiscible biphasic system of octanol and phosphate buffer solution and pH is continuously recorded. The shift in p Ka -values was used to estimate the log Kow values.2, 3 Data processing was performed with Sirius T3 Refine software (version 2.0.0.0.), and the final p Ka and log Kow values were calculated as the average of three titrations. To ensure reproducibility, measurements were conducted on at least two

[3] = PPARγ bioassay cytotoxicity, dosing range all
[4] = PPARγ bioassay cytotoxicity, dosing range all, linear model
[5] = PPARγ bioassay cytotoxicity, dosing range all, log-logistic model
[6] = PPARγ bioassay cytotoxicity, dosing range high
[7] = PPARγ bioassay cytotoxicity, dosing range high, linear model
[8] = PPARγ bioassay cytotoxicity, dosing range high, log-logistic model
[9] = PPARγ bioassay cytotoxicity, dosing range low
[10] = PPARγ bioassay cytotoxicity, dosing range low, linear model
[11] = PPARγ bioassay cytotoxicity, dosing range low, log-logistic model

Row | Compound | IC10, linear transformed [1, 3] | IC10, linear [1, 4] | logIC10 [1, 5] | log Kow used [2] | Toxic ratio (TR) TRPPARγ ([1]; against baseline cytotoxicity) | IC10, HEK293, PPARγ [1] [µM] | also measured
1 | CC1(C)C(O)C(C)(C)C1O (racemic) [r-TMCD, 2,2,4,4-Tetramethyl-1,3-cyclobutanediol (racemate)] | 6.71E-03 | no cytotoxicity | no cytotoxicity |  |  |  | 
2 | O=S(=O)(c1ccc(O)cc1)c1ccccc1O [2,4-BPS, 2,4'-Dihydroxydiphenyl sulfone] |  |  |  | 1.90 |  |  | Toxic ratio (TR) TRPPARγ ([1]; human, 24 h): 2.23; logIC10 ([1]; human, 24 h): -3.73
3 | CC(C)(c1ccc(OCC2CO2)cc1)c1ccc(OCC2CO2)cc1 (centres unmarked) [BADGE, Bisphenol A diglycidyl ether] | 1.49E-05 | no cytotoxicity | -4.62 |  | 0.42 | 24 | 
4 | CC(C)CC(C)(c1ccc(O)cc1)c1ccc(O)cc1 [BP-MIBK, 4,4'-(1,3-Dimethylbutylidene)diphenol] |  |  |  |  |  |  | logIC10 ([1]; human, 24 h): -5.09
5 | CC(C)(c1ccc(O)cc1)c1ccc(O)cc1 [BPA, 4,4'-(Propane-2,2-diyl)diphenol, reference compound] |  |  |  | 4.25 |  |  | Toxic ratio (TR) TRPPARγ ([1]; human, 24 h): 0.38; logIC10 ([1]; human, 24 h): -4.45
6 | Oc1ccc(C(c2ccc(O)cc2)(C(F)(F)F)C(F)(F)F)cc1 [BPAF, 4,4'-(1,1,1,3,3,3-Hexafluoropropane-2,2-diyl)diphenol] | 4.34E-06 | 1.10E-05 | -5.04 | 4.72 |  | 9.12 | 
7 | CC(c1ccccc1)(c1ccc(O)cc1)c1ccc(O)cc1 [BPAP, 4,4'-(1-Phenylethylidene)bisphenol] | 3.60E-06 | no cytotoxicity | -4.99 | 5.06 |  | 10.2 | 
8 | CCC(C)(c1ccc(O)cc1)c1ccc(O)cc1 [BPB, 4,4'-(Butane-2,2-diyl)diphenol] | 2.50E-06 | 1.29E-05 | -4.83 | 3.72 | 0.61 | 14.8 | 
9 | CC(c1ccc(O)cc1)c1ccc(O)cc1 [BPE, 4,4′-Ethylidenbisphenol] | 5.10E-06 | 6.46E-05 | -4.15 | 4.05 |  | 70.8 | 
10 | Oc1ccc(Cc2ccc(O)cc2)cc1 [BPF, Bis(4-hydroxyphenyl)methane] | 6.05E-06 | 1.05E-04 | -4.01 | 2.71 |  | 97.7 | 
11 | CC(C)c1cc(C(C)(C)c2ccc(O)c(C(C)C)c2)ccc1O [BPG, 2,2-Bis(4-hydroxy-3-isopropylphenyl)propane] | 3.91E-06 | 5.23E-06 | -5.19 |  | 0.22 | 6.46 | 
12 | CC(C)(c1ccc(O)c(-c2ccccc2)c1)c1ccc(O)c(-c2ccccc2)c1 [BPPH, 2,2-Bis(2-hydroxy-5-biphenylyl)propane] | 4.34E-06 | 8.25E-06 | -5.16 |  | 0.15 | 6.92 | 
13 | O=S(=O)(c1ccc(O)cc1)c1ccc(O)cc1 [BPS, 4,4'-Sulfonyldiphenol] | 3.12E-05 | 6.15E-04 | -3.22 | 1.97 |  | 603 | 
14 | C=CCOc1ccc(S(=O)(=O)c2ccc(O)cc2)cc1 [BPS-MAE, 4-[[4-(Allyloxy)phenyl]sulfonyl]phenol] | 1.96E-05 | 9.34E-05 | -4.24 |  |  | 57.5 | 
15 | O=S(=O)(c1ccc(O)cc1)c1ccc(OCc2ccccc2)cc1 [BPS-MPE, 4-[4-(benzyloxy)benzenesulfonyl]phenol] |  |  |  | 4.28 | 0.09 | 134 | IC10, linear transformed [1, 6]: 9.04E-06; IC10, linear [1, 7]: 1.34E-04; logIC10 [1, 8]: -3.96; IC10, linear transformed [1, 9]: 1.83E-05; IC10, linear [1, 10]: 1.11E-05; logIC10 [1, 11]: -5.06
16 | Oc1ccc(Sc2ccc(O)cc2)cc1 [BPT, 4,4'-Thiodiphenol] | 4.47E-06 | 2.13E-05 | -4.76 | 3.29 |  | 17.4 | 
17 | Oc1ccc(C2(c3ccc(O)cc3)CCCCC2)cc1 [BPZ, 1,1'-Bis(4-hydroxyphenyl)cyclohexane] | 4.22E-06 |  | -5.04 | 4.64 |  | 9.12 | 
18 | Cc1ccc(S(=O)(=O)NC(=O)Nc2ccc(Cc3ccc(NC(=O)NS(=O)(=O)c4ccc(C)cc4)cc3)cc2)cc1 [BTUM, 4,4'-Bis(p-tolylsulfonylureido)diphenylmethane] |  | 4.34E-05 | -4.51 |  | 0.91 | 31 | 
19 | COC(=O)C(c1ccc(O)cc1)c1ccc(O)cc1 [Bz, Methyl bis(4-hydroxyphenyl)acetate] | 1.09E-04 | 3.71E-04 | -3.55 | 2.06 | 0.92 | 282 | 
20 | O=C(OCc1ccccc1)c1ccc(O)cc1 [BzPB, Benzyl 4-hydroxybenzoate] | 3.90E-06 | 3.41E-05 | -4.33 | 3.30 | 0.35 | 46.8 | 
21 | CC(C)Oc1ccc(S(=O)(=O)c2ccc(O)cc2)cc1 [D8, 4-((4-Isopropoxyphenyl)sulfonyl)phenol] |  |  |  |  | 0.93 |  | IC10, linear [1]: no cytotoxicity; logIC10 ([1]; human, 24 h): -4.15
22 | Cc1ccc(S(=O)(=O)NC(=O)Nc2cccc(OS(=O)(=O)c3ccc(C)cc3)c2)cc1 [Pergafast, N-(p-toluenesulfonyl)-N'-(3-(p-toluenesulfonyloxy)phenyl)urea] | 1.21E-06 | 2.22E-05 | -4.72 | 4.11 | 2.74 | 19.1 | 
23 | CC(C)(c1cc(Br)c(O)c(Br)c1)c1cc(Br)c(O)c(Br)c1 [TBBPA, 3,3',5,5'-Tetrabromobisphenol A] |  |  |  | 5.91 |  |  | 
24 | CC(C)(c1cc(Cl)c(O)c(Cl)c1)c1cc(Cl)c(O)c(Cl)c1 [TCBPA, 2,2',6,6'-Tetrachlorobisphenol A] |  |  |  |  |  | 18.4 | IC10, linear transformed [1, 6]: 5.23E-06; IC10, linear [1, 7]: 1.84E-05; logIC10 [1, 8]: -4.74; IC10, linear transformed [1, 9]: 7.55E-07; IC10, linear [1, 10]: no cytotoxicity; logIC10 [1, 11]: no cytotoxicity
25 | Cc1cc(Cc2cc(C)c(O)c(C)c2)cc(C)c1O [TMBPF, Bis(3,5-dimethyl-4-hydroxyphenyl)methane] | 4.21E-07 | 3.65E-06 | -5.53 |  | 1.52 | 2.95 | 
26 | CC1(C)[C@H](O)C(C)(C)[C@H]1O [Trans TMCD] | 1.52E-03 | no cytotoxicity | no cytotoxicity |  |  |  | 
